# Experimental data taken from patent US10519133B2, “Vinyl compounds as FGFR and VEGFR inhibitors” (MEDSHINE DISCOVERY INC., priority 2015, dated 2019).
# Like-named read-outs stand apart in the source and are kept apart here.
# Key:
# [1] = target: T1, FGFR1 (Homo sapiens, UniProt P11362); experiment: Z′-LYTE Detection Kinase Assay, in vitro enzymatic activity; assay type: biochemical; settings: 0.6 nM FGFR1, 2 uM Tyr4 peptide, 10 uM ATP, 60 min 23° C.
# T1 construct: purchased Invitrogen PV4105
# T1 sequence (P11362 22-822): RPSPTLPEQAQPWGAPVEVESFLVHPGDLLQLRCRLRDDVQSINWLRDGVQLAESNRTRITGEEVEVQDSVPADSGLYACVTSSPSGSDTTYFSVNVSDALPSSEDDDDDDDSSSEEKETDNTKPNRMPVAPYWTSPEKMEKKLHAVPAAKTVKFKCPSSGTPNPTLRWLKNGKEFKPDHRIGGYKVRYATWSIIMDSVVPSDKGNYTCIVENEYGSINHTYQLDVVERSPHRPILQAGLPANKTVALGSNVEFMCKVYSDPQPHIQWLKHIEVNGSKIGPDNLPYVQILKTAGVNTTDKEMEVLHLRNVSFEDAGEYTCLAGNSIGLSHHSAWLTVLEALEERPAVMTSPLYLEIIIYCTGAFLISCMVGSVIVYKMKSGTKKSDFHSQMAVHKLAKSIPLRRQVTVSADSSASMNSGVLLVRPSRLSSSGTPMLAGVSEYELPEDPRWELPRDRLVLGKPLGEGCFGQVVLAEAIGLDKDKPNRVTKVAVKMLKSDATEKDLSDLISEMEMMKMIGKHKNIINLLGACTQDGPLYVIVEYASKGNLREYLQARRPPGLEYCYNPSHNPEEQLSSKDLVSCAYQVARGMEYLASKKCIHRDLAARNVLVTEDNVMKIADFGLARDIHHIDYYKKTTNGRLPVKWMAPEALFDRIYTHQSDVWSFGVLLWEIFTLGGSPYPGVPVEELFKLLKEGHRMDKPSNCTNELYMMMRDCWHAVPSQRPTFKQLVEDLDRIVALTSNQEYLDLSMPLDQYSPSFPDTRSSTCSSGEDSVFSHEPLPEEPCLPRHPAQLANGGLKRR
# Description: To measure enzyme activity by Z′-LYTE™ Detection Kinase Assay, and to evaluate the inhibitory effect of the compounds on FGFR1 using IC50 value of the compounds as an indicator. […]
# Reaction Buffer: 50 mM Hepes (pH 7.5), 10 mM MgCl2, 1 mM EGTA, 0.01% Brij-35, 1 mM DTT, 2 mM MnCl2 0.6 nM FGFR1, 2 uM Tyr4 peptide and 10 uM ATP in reaction buffer (50 mM Hepes, pH 7.5, 10 mM MgCl2, 0.01% BRIJ-35, 1 mM EGTA, 4 mM MnCl2, 2 mM DTT). a. Diluting the compounds with DMSO to 10 mM, 3-fold dilution, 11 gradients, duplicate wells. b. Diluting the compound by 1:25 into middle plate at Bravo Automatic Liquid Station, then transferring 2.5 ul to the reaction plate to ensure the final DMSO concentration to be 1%. c. Transferring 5 ul of enzyme/substrate buffer into each well d. Using Multidrop Liquid Workstation to sequentially add ATP solution to each well e. Centrifuging at 1000 rpm for 1 minute f. Placing the reaction plate in an incubator at 23° C. to react for 60 min. a. Preparing a 1:128 mixture of Development Regent B and Development Buffer b. Adding 5 ul to each well and centrifuging at 1000 rpm for 1 minute c. Placing the reaction plate in a thermostat (23° C.) after centrifuging for 90 minutes, removing and reading on Envision (Perkin Elmer) Plate Reader
# D. Analyzing Data: Analyzing Data Using XLFIT (IDBS) and Calculating IC50 Values for the Compounds.
# [2] = tested on: SNU-16 cell; experiment: CellTiter-Glo Luminescent Cell Viability Assay; assay type: cell-based; settings: Homo sapiens, 72 h; SNU-16 cells, 3 days; read-out: SNU-16 IC50 (CellTiter-Glo Detection)
# Description: To detect the change of intracellular ATP by CellTiter-Glo® Luminescent Cell Viability Assay, and to evaluate the inhibitory effect of the compounds on in vitro cell SNU-16 using IC50 value of the compounds as an indicator.
# Cell line: SNU-16 cell strain d. Diluting SNU-16 with medium, adding the diluted cells to the 384 plate (Greiner. 781090) (50 μL/well, SNU-16 cell 750 cells/well) with multi-channel pipette. Placing the cell plate in a 37° C., 5% CO2 incubator overnight. […]
# g. Diluting the compound with DMSO to 10 mM, 3-fold dilution, 11 gradients, duplicate wells. h. Transferring 2.4 ul of the compound to the middle plate added with 47.6 ul of cell culture media at Bravo Automatic Liquid Station. Then transferring 5 ul to the cell culture plate (55 ul) to ensure the final DMSO concentration to be 0.4%. […]
# i. Placing the cell culture plate in 5% CO2 incubator at 37° C. to continue cultivating for 3 days. d. Balancing Cell Titer Glo Reagent to room temperature e. Taking 30 ul of Cell Titer Glo Reagent in a 1:2 ratio into each well and gently mixing for 2 minutes f. Placing the cell culture plate in an incubator (23° C.) for 10 minutes, taking out and centrifuging at 1000 rpm for 1 minute g. Reading on Envision (Perkin Elmer) Plate Reader.
# H. Analyzing Data: Analyzing the Data Using XLFIT (IDBS) and Calculating IC50 Values for the Compounds.
# [3] = Pharmacokinetics after intravenous and intragastric administration (Experimental Example 4); assay type: in vivo; settings: female Balb/c nude mice; for bioavailability / AUC(0-t) / Cmax / half-life / clearance / Vd: mouse, plasma; for Cmax: read-out: peak concentration (Cmax); for half-life: read-out: elimination half-life (T1/2) (converted); for clearance: read-out: plasma clearance (CL); for Vd: read-out: steady state apparent volume of distribution (Vdss)
# Description: Experimental Procedure: A clear solution of the test compound in 20% DMSO/60% PEG400/20% water at 1 mg/ml was injected via the caudal vein into female Balb/c nude mice (fasted overnight, 7-9 weeks of age) with a dose of 1 mg/kg. The test compound suspended in 0.5% Methocel/0.2% Tween 80 at 1 mg/ml was administered by intragastric administration to female Balb/c nude mice (fasted overnight, 7-9 weeks of age) with a dose of 10 mg/kg. About 30 μL of blood collected from the jugular vein or caudal vein at 0.0833, 0.25, 0.5, 1.0, 2.0, 4.0, 8.0 and 24 h after administration in both groups of animals, were placed in anticoagulation tube with EDTA-K2 and the plasma was centrifuged. Plasma concentrations were determined by LC-MS/MS and related pharmacokinetic parameters were calculated using the non-compartmental model linear logarithmic trapezoidal method using WinNonlin™ Version 6.3 (Pharsight, Mountain View, Calif.) pharmacokinetic software.
# [4] = po, single intragastric administration 10 mg/kg
# [5] = po, single intragastric administration 10 mg/kg, read-out: AUC0-last
# [6] = single intravenous injection 1.0 mg/kg, read-out: area under the plasma concentration curve (AUC0-last)
# [7] = single intravenous injection 1.0 mg/kg
# [8] = single intragastric administration 10 mg/kg
SMILES,IC50 [1] [nM],IC50 [2] [nM],further results
CC(Oc1ccc2[nH]nc(/C(F)=C/c3ccc(CN4CCOCC4)nc3)c2c1)c1c(Cl)cncc1Cl (racemic) [Example 1],50 to 1000,10 to 1000,–
C[C@H](Oc1ccc2[nH]nc(/C=C(\F)c3ccc(CNC4CCOCC4)nc3)c2c1)c1c(Cl)cncc1Cl [Example 17],50 to 1000,≤ 10,–
C[C@@H](Oc1ccc2[nH]nc(/C=C(\F)c3ccc(CN4CCC(CO)CC4)nc3)c2c1)c1c(Cl)cncc1Cl [Example 21],≤ 10,≤ 10,–
C[C@@H](Oc1ccc2[nH]nc(/C=C(\F)c3ccc(CN4CCN(CC(=O)O)CC4)nc3)c2c1)c1c(Cl)cncc1Cl [Example 29],≤ 10,10 to 1000,–
C[C@@H](Oc1ccc2[nH]nc(/C=C(\F)c3ccc(CN4CCNCC4)nc3)c2c1)c1c(Cl)cncc1Cl [Example 32],≤ 10,≤ 10,–
C[C@@H](Oc1ccc2[nH]nc(/C=C(\F)c3ccc(CN4CCN(C)CC4)nc3)c2c1)c1c(Cl)cncc1Cl [Example 33],≤ 10,≤ 10,–
COC1CCN(Cc2ccc(/C(F)=C/c3n[nH]c4ccc(O[C@H](C)c5c(Cl)cncc5Cl)cc34)cn2)C1 (stereo partly drawn) [Example 34],≤ 10,≤ 10,–
C[C@@H](Oc1ccc2[nH]nc(/C=C(\F)c3ccc(OCC4CCOCC4)nc3)c2c1)c1c(Cl)cncc1Cl [Example 41],50 to 1000,≤ 10,–
C[C@@H](Oc1ccc2[nH]nc(/C=C(\F)c3ccc(NC4CCOCC4)nc3)c2c1)c1c(Cl)cncc1Cl [Example 45],50 to 1000,≤ 10,–
C[C@@H](Oc1ccc2[nH]nc(/C=C(\F)c3ccc(NC4CCNCC4)nc3)c2c1)c1c(Cl)cncc1Cl [Example 47],≤ 10,≤ 10,–
CC(Oc1ccc2[nH]nc(/C=C/c3cnc(CN4CCOCC4)cn3)c2c1)c1c(Cl)cncc1Cl (stereo not drawn) [Example 53],10 to 50,≤ 10,–
CC(Oc1ccc2[nH]nc(/C=C/c3cc(F)c(CN4CCOCC4)cc3C#N)c2c1)c1c(Cl)cncc1Cl (stereo not drawn) [Example 62],50 to 1000,≤ 10,–
CC(Oc1ccc2[nH]nc(-c3ccc(NC(=O)CN4CCOCC4)nc3)c2c1)c1c(Cl)cncc1Cl (stereo not drawn) [Example 70],50 to 1000,≤ 10,–
CC(Oc1ccc2[nH]nc(/C=C/c3ccc(CNC4CCN(C)CC4)cc3)c2c1)c1c(Cl)cncc1Cl (stereo not drawn) [Example 76],≤ 10,≤ 10,–
CC1CN(C(=O)c2ccc(-c3n[nH]c4ccc(OC(C)c5c(Cl)cncc5Cl)cc34)cc2)CCN1 (stereo not drawn) [Example 112],50 to 1000,–,–
CC(Oc1ccc2[nH]nc(-c3ccc(C(=O)N4CCOCC4)cc3)c2c1)c1c(Cl)cncc1Cl (stereo not drawn) [Example 113],50 to 1000,–,–
CC(Oc1ccc2[nH]nc(-c3ccc(C(=O)N4CCC(O)CC4)cc3)c2c1)c1c(Cl)cncc1Cl (stereo not drawn) [Example 114],50 to 1000,–,–
CC(Oc1ccc2[nH]nc(-c3ccc(C(=O)N4CCC(N(C)C)CC4)cc3)c2c1)c1c(Cl)cncc1Cl (stereo not drawn) [Example 115],10 to 50,–,–
CC(Oc1ccc2[nH]nc(-c3ccc(C(=O)N4CCN(C)CC4)cc3)c2c1)c1c(Cl)cncc1Cl (stereo not drawn) [Example 116],50 to 1000,–,–
CC(Oc1ccc2[nH]nc(-c3ccc(C(=O)N4CCN(C(C)C)CC4)cc3)c2c1)c1c(Cl)cncc1Cl (stereo not drawn) [Example 117],50 to 1000,–,–
CC(Oc1ccc2[nH]nc(-c3ccc(C(=O)N4CCC(O)C4)cc3)c2c1)c1c(Cl)cncc1Cl (stereo not drawn) [Example 119],50 to 1000,–,–
CC(=O)N(C)C1CCN(C(=O)c2ccc(-c3n[nH]c4ccc(OC(C)c5c(Cl)cncc5Cl)cc34)cc2)C1 (stereo not drawn) [Example 120],50 to 1000,–,–

SMILES,IC50 [1] [nM],IC50 [2] [nM],further results
CC(Oc1ccc2[nH]nc(-c3ccc(C(=O)N4CC[C@@H](N(C)C)C4)cc3)c2c1)c1c(Cl)cncc1Cl (stereo partly drawn) [Example 121],50 to 1000,–,–
CC(Oc1ccc2[nH]nc(-c3ccc(C(=O)NCCN4CCOCC4)cc3)c2c1)c1c(Cl)cncc1Cl (stereo not drawn) [Example 125],50 to 1000,–,–
CC(Oc1ccc2[nH]nc(-c3ccc(C(=O)N4CCNCC4C)cc3)c2c1)c1c(Cl)cncc1Cl (stereo not drawn) [Example 126],50 to 1000,–,–
C[C@@H](Oc1ccc2[nH]nc(-c3cccc(C(=O)NC4CCOCC4)c3)c2c1)c1c(Cl)cncc1Cl [Example 127],50 to 1000,–,–
C[C@@H](Oc1ccc2[nH]nc(-c3cccc(C(=O)N4CC[C@H](O)C4)c3)c2c1)c1c(Cl)cncc1Cl [Example 129],50 to 1000,–,–
C[C@@H](Oc1ccc2[nH]nc(-c3cccc(C(=O)N4CCC(CO)CC4)c3)c2c1)c1c(Cl)cncc1Cl [Example 130],50 to 1000,–,–
C[C@@H](Oc1ccc2[nH]nc(/C=C/c3cccc(CNC4CCOCC4)c3)c2c1)c1c(Cl)cncc1Cl [Example 132],≤ 10,–,–
C[C@@H](Oc1ccc2[nH]nc(/C=C/c3cccc(CN4CCC(O)C4)c3)c2c1)c1c(Cl)cncc1Cl (stereo partly drawn) [Example 134],≤ 10,–,–
C[C@@H](Oc1ccc2[nH]nc(/C=C/c3cccc(CN4CCC(CO)CC4)c3)c2c1)c1c(Cl)cncc1Cl [Example 135],≤ 10,–,–
C[C@@H](Oc1ccc2[nH]nc(/C=C/c3ccc(CN4CCOCC4)nc3)c2c1)c1c(Cl)cncc1Cl [Example 137],≤ 10,–,–
C[C@@H](Oc1ccc2[nH]nc(/C=C/c3ccc(CN4CC[C@H](O)C4)nc3)c2c1)c1c(Cl)cncc1Cl [Example 138],≤ 10,–,–
C[C@@H](Oc1ccc2[nH]nc(/C=C/c3ccc(CN4CCC(CO)CC4)nc3)c2c1)c1c(Cl)cncc1Cl [Example 140],10 to 50,–,–
C[C@@H](Oc1ccc2[nH]nc(/C=C(\F)c3ccc(CNC4CCOCC4)nc3)c2c1)c1ccncc1Cl [Example 142],10 to 50,–,–
CC(Oc1ccc2[nH]nc(/C=C(\F)c3ccc(CNC4CCOCC4)nc3)c2c1)c1ccc(F)cc1Cl (stereo not drawn) [Example 143],50 to 1000,–,–
CC(Oc1ccc2[nH]nc(/C=C(\F)c3ccc(CNC4CCOCC4)nc3)c2c1)c1cc(F)cc(F)c1 (stereo not drawn) [Example 144],≤ 10,–,–
CC(Oc1ccc2[nH]nc(/C=C(\F)c3ccc(CNC4CCOCC4)nc3)c2c1)c1c(F)cccc1Cl (stereo not drawn) [Example 145],50 to 1000,–,–
CC(Oc1ccc2[nH]nc(/C=C(\F)c3ccc(CNC4CCOCC4)nc3)c2c1)c1c(F)cncc1F (stereo not drawn) [Example 146],≤ 10,–,–
CC(Oc1ccc2[nH]nc(/C=C(\F)c3ccc(CNC4CCOCC4)nc3)c2c1)c1c(F)cccc1F (stereo not drawn) [Example 147],50 to 1000,–,–
CCN1CCC(C(C)Oc2ccc3[nH]nc(/C=C/c4ccc(CN5CCOCC5)cc4)c3c2)CC1 (stereo not drawn) [Example 148],50 to 1000,–,–
CC(Oc1ccc2[nH]nc(/C=C/c3ccc(CN4CCOCC4)cc3)c2c1)C1CCN(C)CC1 (stereo not drawn) [Example 149],50 to 1000,–,–
"C[C@@H](Oc1ccc2[nH]nc(/C=C/c3ccc(CNC4CCOCC4)nc3)c2c1)c1c(Cl)cncc1Cl [WX_015, reference compound]",–,–,"bioavailability [3, 4]: 11.4%; AUC(0-t) [3, 5]: 0.439 ± 0.202 µM·h; Cmax [3, 4]: 134 ± 68.3 nM; AUC(0-t) [3, 6]: 0.386 ± 0.0883 µM·h; half-life [3, 7]: 0.971 ± 0.461 h; clearance [3, 7]: 83.5 ± 18.5 mL/min/kg; Vd [3, 7]: 5.31 ± 0.268 L/kg; peak time [3, 8]: 1.50 ± 0.866 h"
C[C@@H](Oc1ccc2[nH]nc(/C=C(\F)c3ccc(CNC4CCOCC4)nc3)c2c1)c1c(Cl)cncc1Cl [WX_018],–,–,"bioavailability [3, 4]: 30.1%; AUC(0-t) [3, 5]: 1.65 ± 0.0401 µM·h; Cmax [3, 4]: 479 ± 62.9 nM; AUC(0-t) [3, 6]: 0.567 ± 0.0194 µM·h; half-life [3, 7]: 1.57 ± 0.0286 h; clearance [3, 7]: 53 ± 1.69 mL/min/kg; Vd [3, 7]: 5.45 ± 0.491 L/kg; peak time [3, 8]: 2.00 h"
